# From the supplement of paper PMC10307832
# Experiments:
# Test in all cases: relative viability (nuclei count vs DMSO), 5 days (fraction); higher = more cells survive
# BAY61-3606 = compound: COC1=C(C=C(C=C1)C2=CC3=NC=CN3C(=N2)NC4=C(C=CC=N4)C(=O)N)OC [BAY61-3606]
# In short: (§1)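 For viability, nuclei in each treated well were divided by nuclei in vehicle wells and the median across plates was taken. Lung cancer cell lines in 1536-well plates were pinned with five library-drug doses (not always all listed) spaced by √10, cultured 5 days without medium change, and imaged at 4× after Hoechst staining, with plates passing only at control CV below 25% and at least one doubling.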
# Doxorubicin = compound: COc1cccc2c1C(=O)c1c(O)c3c(c(O)c1C2=O)C[C@@](O)(C(=O)CO)C[C@@H]3O[C@H]1C[C@H](N)[C@H](O)[C@H](C)O1 [Doxorubicin]
# In short: as §1
# BAY61-3606 + OSI-027 = compound: COC1=C(C=C(C=C1)C2=CC3=NC=CN3C(=N2)NC4=C(C=CC=N4)C(=O)N)OC [BAY61-3606] + COc1cccc2cc(-c3nc([C@H]4CC[C@H](C(=O)O)CC4)n4ncnc(N)c34)[nH]c12 [OSI-027] (partner 0.5 µM)
# In short: (§2)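 The day after seeding in 1536-well plates, lung cancer cell lines were treated by pin tool with a single drug, or with a fixed anchor-drug dose together with five library-drug doses (not always all listed) in √10 steps. After 5 days, a combined fix-and-stain solution (final 0.05% Triton X-100, 1% formaldehyde, 1 ug/ml Hoechst) was added. Nuclei counted on 4× images gave relative viability as treated counts over vehicle counts, reported as the median of duplicate plates.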
# Doxorubicin + Pemetrexed = compound: COc1cccc2c1C(=O)c1c(O)c3c(c(O)c1C2=O)C[C@@](O)(C(=O)CO)C[C@@H]3O[C@H]1C[C@H](N)[C@H](O)[C@H](C)O1 [Doxorubicin] + Nc1nc2[nH]cc(CCc3ccc(C(=O)N[C@@H](CCC(=O)O)C(=O)O)cc3)c2c(=O)[nH]1 [Pemetrexed] (partner 0.2 µM)
# In short: as §2
Cell Line,relative viability (BAY61-3606; 0.02 µM),relative viability (BAY61-3606; 0.06325 µM),relative viability (BAY61-3606; 0.2 µM),relative viability (BAY61-3606; 0.6325 µM),relative viability (BAY61-3606; 2 µM),relative viability (Doxorubicin; 0.003162 µM),relative viability (Doxorubicin; 0.01 µM),relative viability (Doxorubicin; 0.03162 µM),relative viability (Doxorubicin; 0.1 µM),relative viability (BAY61-3606 + OSI-027; first compound 0.02 µM),relative viability (BAY61-3606 + OSI-027; first compound 0.06325 µM),relative viability (BAY61-3606 + OSI-027; first compound 0.2 µM),relative viability (BAY61-3606 + OSI-027; first compound 0.6325 µM),relative viability (BAY61-3606 + OSI-027; first compound 2 µM),relative viability (Doxorubicin + Pemetrexed; first compound 0.001 µM),relative viability (Doxorubicin + Pemetrexed; first compound 0.003162 µM),relative viability (Doxorubicin + Pemetrexed; first compound 0.01 µM),relative viability (Doxorubicin + Pemetrexed; first compound 0.03162 µM),relative viability (Doxorubicin + Pemetrexed; first compound 0.1 µM),relative viability (Doxorubicin; 0.001 µM)
NCI-H23,1.11,1.03,0.78,0.947,0.789,1.06,0.978,0.654,0.532,0.629,0.72,0.442,0.561,0.512,0.515,0.685,0.667,0.661,0.444,–
NCI-H322M,1.04,0.919,1,0.921,0.843,0.887,0.976,0.904,0.568,0.53,0.592,0.562,0.582,0.47,0.682,0.542,0.66,0.548,0.512,1
NCI-H358,0.954,0.947,0.87,0.864,0.369,1.04,0.761,0.235,0.199,0.918,0.722,0.781,0.677,0.199,0.152,0.183,0.179,0.156,0.169,0.975
NCI-H441,1.12,1.15,1.01,1.15,0.682,0.957,0.677,0.359,0.326,0.587,0.713,0.428,0.557,0.313,0.253,0.264,0.265,0.229,0.224,0.687
NCI-H460,1.04,1.03,0.959,0.998,0.891,0.96,0.859,0.468,0.141,0.781,0.672,0.657,0.467,0.214,0.0538,0.064,0.0574,0.0641,0.0392,0.957
NCI-H520,1.07,1.06,1.07,1.12,1.05,1.03,0.939,0.799,0.822,0.247,0.364,0.364,0.296,0.212,0.789,0.728,0.681,0.703,0.604,0.901
NCI-H522,0.961,0.907,0.953,0.954,0.933,0.938,0.988,0.838,0.894,0.653,0.646,0.686,0.717,0.738,0.949,1.02,1.16,0.844,0.878,0.741
NCI-H596,0.96,0.96,1.07,1.15,0.86,1.16,1.08,0.853,0.948,0.699,0.535,0.647,0.711,0.462,0.499,0.505,0.526,0.473,0.486,0.97
NCI-H647,1.15,0.897,0.946,0.979,0.616,1.07,0.987,0.495,0.201,0.648,0.567,0.691,0.423,0.277,0.211,0.168,0.196,0.127,0.163,0.953
NCI-H650,1,0.802,0.818,0.942,0.745,0.86,0.92,0.83,0.741,0.509,0.532,0.439,0.495,0.513,1.05,0.846,0.926,0.867,0.784,1
NCI-H661,1.02,0.993,0.991,0.963,0.976,1.06,0.957,0.853,0.634,0.707,0.742,0.734,0.699,0.505,0.894,1.02,0.891,0.754,0.643,1.01
NCI-H838,1.03,0.942,0.999,0.934,0.668,0.988,0.964,0.807,0.552,0.456,0.36,0.429,0.411,0.298,0.252,0.228,0.229,0.256,0.236,1
NCI-H1355,1.08,0.916,0.937,0.961,0.882,1.04,1.01,0.989,1.01,0.409,0.329,0.374,0.377,0.286,1,1.02,1,1.01,1.04,0.888
NCI-H1395,1.02,0.811,0.826,0.895,0.811,1.05,1.02,0.891,0.629,0.721,0.581,0.601,0.635,0.629,0.887,1.02,1.08,0.7,0.537,0.919
NCI-H1437,1.03,1.03,0.978,1,0.941,1.01,0.894,0.718,0.409,0.941,0.924,0.921,0.936,0.784,0.32,0.297,0.303,0.315,0.329,0.991
NCI-H1563,1.16,0.993,1.01,0.994,0.814,0.939,0.747,0.698,0.683,0.742,0.764,0.699,0.71,0.676,0.734,0.825,0.838,0.777,0.536,0.939

Cell Line,relative viability (BAY61-3606; 0.02 µM),relative viability (BAY61-3606; 0.06325 µM),relative viability (BAY61-3606; 0.2 µM),relative viability (BAY61-3606; 0.6325 µM),relative viability (BAY61-3606; 2 µM),relative viability (Doxorubicin; 0.003162 µM),relative viability (Doxorubicin; 0.01 µM),relative viability (Doxorubicin; 0.03162 µM),relative viability (Doxorubicin; 0.1 µM),relative viability (BAY61-3606 + OSI-027; first compound 0.02 µM),relative viability (BAY61-3606 + OSI-027; first compound 0.06325 µM),relative viability (BAY61-3606 + OSI-027; first compound 0.2 µM),relative viability (BAY61-3606 + OSI-027; first compound 0.6325 µM),relative viability (BAY61-3606 + OSI-027; first compound 2 µM),relative viability (Doxorubicin + Pemetrexed; first compound 0.001 µM),relative viability (Doxorubicin + Pemetrexed; first compound 0.003162 µM),relative viability (Doxorubicin + Pemetrexed; first compound 0.01 µM),relative viability (Doxorubicin + Pemetrexed; first compound 0.03162 µM),relative viability (Doxorubicin + Pemetrexed; first compound 0.1 µM),relative viability (Doxorubicin; 0.001 µM)
NCI-H1648,0.832,0.89,1.16,0.74,0.804,1.07,0.719,0.864,0.882,0.219,0.257,0.263,0.229,0.217,0.756,0.746,0.724,0.695,0.632,0.898
NCI-H1650,1.06,0.883,0.964,1.11,0.527,0.809,0.481,0.255,0.159,0.702,0.442,0.666,0.686,0.396,0.37,0.374,0.381,0.242,0.19,0.823
NCI-H1651,1.01,0.93,0.986,1.01,0.883,0.96,0.925,0.642,0.635,0.702,0.627,0.664,0.637,0.499,0.591,0.628,0.604,0.57,0.588,0.949
NCI-H1666,1.14,0.996,0.958,1.04,1.01,0.996,0.814,0.548,0.525,0.817,0.84,0.824,0.894,0.841,–,0.858,0.724,0.782,0.757,0.902
NCI-H1734,1.04,0.979,0.746,0.935,0.602,1.11,0.876,0.669,0.608,0.605,0.523,0.529,0.542,0.372,0.468,0.404,0.398,0.448,0.421,0.923
NCI-H1755,1.05,1,0.995,1.05,0.988,0.979,1,1.03,1.02,0.743,0.657,0.701,0.712,0.671,0.419,0.408,0.419,0.492,0.467,0.999
NCI-H1792,0.982,0.853,1,0.885,1.03,0.885,0.964,0.903,0.747,0.756,0.716,0.712,0.644,0.528,0.43,0.889,0.809,0.691,0.466,–
NCI-H1793,0.964,1.02,0.786,1.08,1.03,1.18,0.863,0.731,0.901,0.259,0.276,–,0.255,0.235,–,1.11,0.904,0.617,0.784,–
NCI-H1915,0.993,0.996,0.826,1.01,0.786,1.03,0.966,1.03,1.01,0.623,0.632,0.571,0.662,0.443,0.533,0.529,0.525,0.568,0.502,0.955
NCI-H1944,1.08,1,0.95,0.785,0.619,1.02,0.902,0.692,0.802,0.403,0.377,0.363,0.373,0.352,0.606,0.602,0.643,0.504,0.495,0.929
NCI-H1975,0.958,0.964,0.913,0.874,0.668,0.985,0.951,0.778,0.518,0.797,0.756,0.692,0.635,0.333,0.268,0.29,0.277,0.306,0.225,1.02
NCI-H1993,0.958,0.896,0.818,0.97,0.806,0.927,1.01,0.819,0.749,0.586,0.583,0.505,0.564,0.587,0.603,0.685,0.58,0.57,0.528,0.967
NCI-H2009,1.06,1.03,0.997,0.989,0.894,1.01,0.94,0.843,0.504,0.754,0.686,0.681,0.597,0.348,1.04,0.987,1.01,0.788,0.617,0.99
NCI-H2023,1.14,1.05,1,1.16,0.697,0.903,0.706,0.209,0.0985,0.471,0.359,0.37,0.402,0.19,0.247,0.218,0.212,0.128,0.0912,0.873
NCI-H2085,1.08,1.03,0.995,1.08,0.934,0.996,0.994,0.926,0.95,0.868,0.901,0.711,0.769,0.53,0.904,0.943,0.939,1.1,0.802,0.971
